Data published in PMC3517478 (BMC Neurology, 2012).
Changes are numbered by the printed parent chain.

Tests used:
[1] = system: rat alpha 1 GlyR; conditions: rat alpha 1 GlyR in HEK293; cited from earlier work
[2] = system: human alpha1 glycine receptor; conditions: human alpha1 glycine receptors in HEK293; cited from earlier work
[3] = target: T1, human α1R271L-GlyR expressed in HEK 293 cells (Homo sapiens, UniProt P23415, R299L); test: Whole-cell patch-clamp, positive allosteric modulation of glycine (EC20) induced currents; assay type: cell-based; parameters: expressed in transfected cells; host or cells: HEK 293 (transient, electroporation; pcDNA1amp vector); conditions: R271L
T1 sequence (P23415 29-457 R299L): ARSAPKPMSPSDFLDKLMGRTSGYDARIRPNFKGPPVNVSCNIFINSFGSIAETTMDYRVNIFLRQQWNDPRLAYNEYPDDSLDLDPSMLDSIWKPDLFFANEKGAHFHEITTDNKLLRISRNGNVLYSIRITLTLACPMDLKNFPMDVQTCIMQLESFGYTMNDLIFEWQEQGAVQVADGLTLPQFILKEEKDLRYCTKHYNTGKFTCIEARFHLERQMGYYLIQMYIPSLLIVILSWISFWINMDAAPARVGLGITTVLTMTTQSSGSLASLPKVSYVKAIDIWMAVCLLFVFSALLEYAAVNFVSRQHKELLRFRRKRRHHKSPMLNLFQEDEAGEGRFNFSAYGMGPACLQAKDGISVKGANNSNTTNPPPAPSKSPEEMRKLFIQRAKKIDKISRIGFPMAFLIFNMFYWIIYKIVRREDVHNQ
Description: (§1) Drug-containing vials were vigorously vortexed for 30min.
(§2) A new cell was used for each protocol and at least four different experiments were performed for each condition. The concentration of the diluent EtOH corresponding to the highest drug concentration used was 17150 μM.
(§3) Currents were filtered at 2 kHz.
(§4) Currents were normalized to their own maximum response.

[4] = target: T2, human α1R271K-GlyR expressed in HEK 293 cells (Homo sapiens, UniProt P23415, R299K); test: as above; assay type: cell-based; parameters: expressed in transfected cells; host or cells: HEK 293 (transient, electroporation; pcDNA1amp vector); conditions: R271K
T2 sequence (P23415 29-457 R299K): T1 sequence (P23415 29-457 R299L) with L271K
Description: as §1, §2, §3, §4

[5] = target: T3, human α1R271Q-GlyR expressed in HEK 293 cells (Homo sapiens, UniProt P23415, R299Q); test: as above; assay type: cell-based; parameters: expressed in transfected cells; host or cells: HEK 293 (transient, electroporation; pcDNA1amp vector); conditions: R271Q
T3 sequence (P23415 29-457 R299Q): T1 sequence (P23415 29-457 R299L) with L271Q
Description: as §1, §2, §3, §4

[6] = system: α1β glycine receptors (wild-type); parameters: method as in earlier work; conditions: heterologously expressed α1β wild-type (WT) glycine receptors; cited from earlier work
[7] = target: T4, human α1-GlyR (WT) expressed in HEK 293 cells (Homo sapiens, UniProt P23415); test: Whole-cell patch-clamp, positive allosteric modulation of glycine (EC20) induced currents; assay type: cell-based; parameters: expressed in transfected cells; host or cells: HEK 293 (transient, electroporation; pCIS2 vector; co-transfected EGFP as a separate marker)
T4 sequence (P23415 29-457): T1 sequence (P23415 29-457 R299L) with L271R
Description: as §1, §2, §3, §4

Molecule | Hill slope nH [1] | Hill slope nH [2] | positive allosteric modulation nH ± SEM ([3]; EC20 glycine 30 mM) | EC50 ([3]; co-applied with sub-saturating (EC20) glycine 30 mM, read-out: positive allosteric modulation EC50 ± SEM) | positive allosteric modulation, potentiation [% of peak current amplitude] ± SEM ([3]; maximal positive allosteric modulation, EC20 glycine 30 mM) | positive allosteric modulation nH ± SEM ([4]; EC20 glycine 100 μM) | EC50 ([4]; co-applied with sub-saturating (EC20) glycine 100 μM, read-out: positive allosteric modulation EC50 ± SEM) | positive allosteric modulation, potentiation [% of peak current amplitude] ± SEM ([4]; maximal positive allosteric modulation, EC20 glycine 100 μM) | positive allosteric modulation nH ± SEM ([5]; EC20 glycine 10 mM) | EC50 ([5]; co-applied with sub-saturating (EC20) glycine 10 mM, read-out: positive allosteric modulation EC50 ± SEM) | positive allosteric modulation, potentiation [% of peak current amplitude] ± SEM ([5]; maximal positive allosteric modulation, EC20 glycine 10 mM) | potency relative to propofol in enhancing glycine induced currents [6] | increased potency to positively modulate glycine induced chloride currents in comparison to propofol ([7]; WT glycine receptors, propofol value from ref 21) | positive allosteric modulation nH ± SEM ([7]; WT, EC20 glycine 20 μM) | EC50 ([7]; WT, co-applied with sub-saturating (EC20) glycine 20 μM, read-out: positive allosteric modulation EC50 ± SEM) | positive allosteric modulation, potentiation [% of peak current amplitude] ± SEM ([7]; WT, maximal positive allosteric modulation, EC20 glycine 20 μM)
NCC(=O)O [glycine] | 3.3 | 2.4 | – | – | – | – | – | – | – | – | – | – | – | – | – | –
4-chloro-2,6-dimethylphenol [4-chloropropofol] | – | – | 0.7 ± 0.3 | 100 ± 200 nM | 153 ± 46% | 0.3 ± 0.1 | 6000 ± 2300 nM | 231 ± 174% | 0.9 ± 1.3 | 1300 ± 600 nM | 260 ± 52% | ~1000 fold | more than 1000 fold | 2.0 ± 2.8 | 0.08 ± 0.02 nM | 269 ± 88%
